Earlier results, collected in article PMC11406440 (Food and chemical toxicology : an international journal …, 2024).
Where two headings read alike, the source gives them in different places.

How the values were obtained:
[1] = tested on: male rats; details: 3 and 10 mg/kg/d; ref Butenhoff et al., 2009; cited from earlier work
[2] = tested on: mice; details: dermal exposure; ref Weatherly et al., 2021, 2023; cited from earlier work
[3] = 5% dermal exposure, same conditions; ref Weatherly et al., 2023; cited from earlier work
[4] = ref ATSDR, 2021; cited from earlier work
[5] = ex vivo mouse skin; ref Franko et al., 2012; cited from earlier work
[6] = 4-day dermal exposure, ref Franko et al., 2012, cited from earlier work
[7] = ex vivo human full-thickness skin; ref Franko et al., 2012; cited from earlier work
[8] = tested on: IgM response to SRBC; details: cited from earlier work

Structure (SMILES) | Cholesterol [2] | Glucose levels [2] | Average serum concentration [3] | Average urine concentration [3] | other results
O=S(=O)([O-])C(F)(F)C(F)(F)C(F)(F)C(F)(F)C(F)(F)C(F)(F)F.[K+] [K^+PFHxS, PFHxS potassium salt] | – | – | – | – | Liver weight [1]: increase
O=C(O)C(F)(F)C(F)(F)C(F)(F)F [PFBA, heptafluorobutyric acid] | increased | increased | – | – | –
O=C(O)C(F)(F)C(F)(F)C(F)(F)C(F)(F)C(F)(F)C(F)(F)F [PFHpA, perfluoroheptanoic acid] | no effect | increased | 137 µg/mL | 1200 µg/mL | –
O=C(O)C(F)(F)C(F)(F)C(F)(F)C(F)(F)C(F)(F)F [PFHxA, perfluorohexanoic acid] | no effect | increased | 4.8 µg/mL | 1700 µg/mL | –
O=C(O)C(F)(F)C(F)(F)C(F)(F)C(F)(F)C(F)(F)C(F)(F)C(F)(F)F [PFOA, perfluorooctanoic acid] | – | – | – | – | Half-life in humans [4]: 2.1–10.1 years; Total absorbable fraction [5]: 50%; Serum PFOA level ([6]; 0.5% PFOA): 152 ± 14 µg/mL; Serum PFOA level ([6]; 2% PFOA): 226 ± 14 µg/mL; Total absorbable fraction [7]: 69%; SRBC IgM antibody titers ([8]; 15 days, 3.75–30 mg/kg via drinking water, ref Dewitt et al., 2008): reduce; IgM response to SRBC ([8]; dermal exposure, ref Shane et al., 2020): suppression
O=C(O)C(F)(F)C(F)(F)C(F)(F)C(F)(F)F [PFPeA, perfluoropentanoic acid] | no effect | increased | – | – | –
